In this experiment the test system is CEM cells HIV-1 protection, formazan growth assay. The experiment in a line: NCI AIDS Antiviral Assay. Conditions: for IC50: measured here: growth of uninfected CEM cells. In a few lines:
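CEM (human) cells, HIV-1 infected vs uninfected, 5-point dosing, formazan growth read-out. Retest threshold 50% protection.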

For 52 molecules, outcome, EC50 and IC50 results are on record in PubChem BioAssay AID179 (DTP/NCI, 2004).

The source made the active and inactive calls.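 The calls were made as follows: active = compounds giving half or more protection of infected cells from virus-caused growth loss, again on retest; inactive = the rest.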

As for `COc1cc2c(c(OC)c1OC)-c1ccc(SC)c(=S)cc1[C@@H](NC(C)=O)CC2`, the result was inactive. Turning to `O=C1CCCN1CCCN=c1cc2n(-c3ccc(Cl)cc3)c3ccccc3nc-2cc1Nc1ccc(Cl)cc1`, the outcome was inactive. By EC50 is commonly meant the concentration needed to bring the measured effect to its halfway point. In general, IC50 refers to the concentration at which inhibition is half-maximal. A high value points to lower potency. As to `NC1=NC(Cn2nc(-c3ccccc3)c3ccccc3c2=O)=NNC(=O)N1`, the EC50 was > 20 µM and the IC50 is > 20 µM.

Regarding `CCOc1ccc(OCC(=O)O)c2c1CCCC2=O`, the outcome was inactive. With `Cn1ncc(NCCn2cnc3c2c(=O)n(C)c(=O)n3C)c(Cl)c1=O`, the EC50 is > 200 µM and the IC50 is > 200 µM.

As for `Cn1[nH]cc2ccc3nc4ccccc4c(=O)c3c21`, the result was inactive. On to `CC(C)NC(=O)OCc1c(COC(=O)NC(C)C)c(-c2ccc(Cl)c(Cl)c2)n2c1CCC2`, for which the EC50 is > 7.41 µM and the IC50 was determined as 4.47 µM.

In the case of `Cc1cn(C2CC(NC(=O)NO[Si](C)(C)C(C)(C)C)C(CO[Si](C)(C)C(C)(C)C)O2)c(=O)[nH]c1=O` (stereo not drawn), the EC50 is > 200 µM and the IC50 came to 95.5 µM. On to `C=C(C)C1CC2=C(C(=O)OC)C=C(O2)C(C(=C)C)[C@@H]2OC(=O)/C(=C\C1O)[C@H]2N(C)C` (stereo partly drawn), for which the EC50 was > 20 µM and the IC50 was found to be 5.01 µM. `N#Cc1ncn(-c2ccccc2)c1N`: the EC50 was > 200 µM and the IC50 was > 200 µM. Consider `CC1=C(c2ccccc2)CON(c2ccccc2)C1`, for which the EC50 was > 53.7 µM and the IC50 was > 53.7 µM. As for `CNc1nc(C(N)=O)c(N)s1`, the EC50 is > 200 µM and the 50% inhibitory concentration (IC50) was > 200 µM.

Take `CCOP(=O)(C=C=C(C)C)OCC`: the EC50 was > 200 µM and the IC50 was > 200 µM. Consider `OCCN1CC2CCCC1O2` (stereo not drawn), for which the EC50 was > 1580 µM and the IC50 was > 1580 µM. On to `COCCNc1cncc(C(N)=O)c1`, for which the EC50 is > 200 µM and the IC50 is > 200 µM.

Consider `CC(C)(C)c1ccc(OC2CCO2)cc1` (stereo not drawn), for which the EC50 is > 34.7 µM and the IC50 was > 34.7 µM. As for `O=C1NCCCCC1CCCC#Cc1ccccc1` (stereo not drawn), the EC50 was > 74.1 µM and the IC50 was 45.7 µM. Consider `N#C/C(=C1\N=C(c2ccccc2O)Oc2ccccc21)c1ccc([N+](=O)[O-])cc1`, for which the EC50 is > 100 µM and the IC50 was > 100 µM.

As to `COc1ccc2nc3c([N+](=O)[O-])ccc(NCCCN(C)C)c3c(N)c2c1`, the EC50 was > 200 µM and the IC50 worked out at 0.195 µM. In the case of `O=C(NNCC(O)COc1ccccc1)c1ccccc1` (stereo not drawn), the EC50 is > 200 µM and the IC50 was > 200 µM. Turning to `CC(C)(Oc1ccc(Cl)cc1)C(=O)N(C(=O)N1CCC(c2ccccc2)CC1)c1ccccc1`, the EC50 is > 200 µM and the IC50 was 7.41 µM. For the molecule `Nc1ncnc2c1ncn2C1OC2CSCC2(O)C1O` (stereo not drawn), the EC50 was > 200 µM and the IC50 was determined as 138 µM. The like results for `CN(NC(=O)/C(=C/c1cc(Cl)cc(Cl)c1O)NC(=O)c1ccccc1)c1cnn(-c2ccccc2)c(=O)c1Cl` were, in that order, > 200 µM and 37.2 µM. As for `O=S(=O)(N1CCCCN(S(=O)(=O)C(F)(F)F)CCCN(S(=O)(=O)C(F)(F)F)CCCCN(S(=O)(=O)C(F)(F)F)CCCN(S(=O)(=O)C(F)(F)F)CCCCN(S(=O)(=O)C(F)(F)F)CCCN(S(=O)(=O)C(F)(F)F)CCCCN(S(=O)(=O)C(F)(F)F)CCC1)C(F)(F)F`, the EC50 was > 200 µM and the IC50 was > 200 µM.

In the case of `CC(=O)Oc1ccccc1C(=O)Nc1ccc(S(=O)(=O)c2ccc(NC(=O)c3ccccc3OC(C)=O)cc2)cc1`, the EC50 is > 200 µM and the IC50 was > 200 µM.

On to `COC(=O)/C(C#N)=C1\CCc2ccccc21`, for which the EC50 was > 1170 µM and the IC50 was > 1170 µM. Consider `Cc1cc(Cl)ccc1NC(=O)C(=O)Cc1nc2ccccc2o1`, for which the EC50 was > 11.5 µM and the IC50 is > 11.5 µM.

For the molecule `CSC1N=CNc2c1sc(=S)n2-c1ccccc1` (stereo not drawn), the EC50 was > 33.9 µM and the IC50 was > 33.9 µM. Regarding `O=C1OCC2Cc3sccc3C(c3ccccc3)=C12` (stereo not drawn), the EC50 was > 97.7 µM and the IC50 is > 97.7 µM. As for `CC1OC(OCC2OC(Oc3ccc(C4CC(=O)c5c(O)cc(O)cc5O4)cc3O)C(O)C(O)C2O)C(O)C(O)C1O` (stereo not drawn), the EC50 is > 200 µM and the IC50 is > 200 µM. As for `CCOC(=O)C1(NC(=O)OC(C)(C)C)CCc2[nH]oc(=O)c2C1` (stereo not drawn), the EC50 was > 200 µM and the IC50 is > 200 µM. As to `O=C(CCC(=O)Nc1cccc(Cl)c1)CC(=O)c1ccc(Cl)cc1`, the result was inactive. Take `COc1cc2c(cc1O)CC[n+]1cc3c(OC)c(OC)ccc3cc1-2`: the EC50 was > 182 µM and the IC50 is > 182 µM. On to `O=C(NCCCl)Nc1ccc(S(=O)(=O)c2ccc([N+](=O)[O-])cc2)cc1`, for which the EC50 was > 200 µM and the concentration for half-maximal inhibition (IC50) came out at 16.2 µM. The like results for `CCCCCCOc1ccc(C(=O)N(C)O)cc1` were, in that order, > 200 µM and 11.5 µM.

Consider `CN/C=C(\C(=O)c1ccc(OC)c(OC)c1)c1ccc(OC)cc1`, for which the EC50 is > 398 µM and the IC50 was 6.92 µM.

`COc1ccc(C(c2cc3c(cc2O)OCO3)N2CCOCC2)c(OC)c1` (stereo not drawn): the EC50 is > 95.5 µM and the IC50 was found to be 7.94 µM. As for `CO[C@@H]1C[C@H]2[C@@H]3CC[C@H]([C@H](C)COC(C)=O)[C@@]3(C)CC[C@@H]2[C@@]2(C)CC[C@H]3C[C@]312`, the EC50 is > 100 µM and the IC50 is > 100 µM. Take `O=[N+]([O-])c1ccc2[nH]c(=S)n(/C=C(/c3ccccc3)S(=O)Cc3ccccc3)c2c1` (stereo not drawn): the EC50 was > 200 µM and the IC50 is > 200 µM. For the molecule `CCOC(=O)c1c(SCC#N)n(-c2ccccc2)c(=S)n(-c2ccccc2)c1=O`, the EC50 was > 200 µM and the half-inhibitory concentration (IC50) worked out at 13.8 µM.

As to `CCc1c(Cc2ccccc2)n(COCCO[Si](C)(C)C(C)(C)C)c(=O)[nH]c1=O`, the EC50 was > 34.7 µM and the IC50 was 12.6 µM. For the molecule `CCc1ccccc1N1C(=O)C(=O)C(c2nc3ccccc3s2)C(=O)C1=O`, the EC50 was > 178 µM and the IC50 was found to be 93.3 µM. Turning to `Oc1c(CN2CCOCC2)cc(N=Nc2ccccc2)c(O)c1CN1CCOCC1`, the EC50 was > 100 µM and the IC50 is > 100 µM. Turning to `COC1(OC)N=C(N)C2(C#N)C(C)CC(=O)N(N(C)C)C12C#N` (stereo not drawn), the EC50 is > 200 µM and the IC50 was > 200 µM. For the molecule `O=S(=O)(NC1OCCCC1I)c1ccccc1` (stereo not drawn), the EC50 is > 200 µM and the IC50 was > 200 µM. On to `CCCCCCCC(=O)OCC(COC(=O)C(C)(C)C)OC(=O)Cc1ccccc1` (stereo not drawn), for which the EC50 is > 251 µM and the IC50 is > 251 µM.

Regarding `COc1ccc2c(c1)[n+]([O-])c(/C(C)=N/NC(=O)c1ccccc1O)c(C)[n+]2[O-]`, the EC50 was > 245 µM and the IC50 is > 245 µM. For `Cc1ccc(CN=C(N)CSS(=O)(=O)O)cc1C`, the EC50 was > 200 µM and the IC50 was > 100 µM. For the molecule `COc1ccc(CC(=O)NCCc2ccc(OC)c(OC)c2)cc1Br`, the EC50 is > 316 µM and the IC50 is > 316 µM.

Consider `CCc1cccc(CC)c1Nc1nc(-c2ccccc2-c2ccccc2)cs1`, for which the EC50 is > 200 µM and the IC50 is > 200 µM. Regarding `COc1ccc(OC(C(=O)O)c2ccccc2)c2c1CCCC2=O` (stereo not drawn), the result was inactive. As to `CN(O)C(=S)c1ccccc1`, the EC50 was > 14.8 µM and the IC50 is 0.112 µM.
